Test results reported in ChEMBL document CHEMBL2074289, “Inhibition of the human organic anion transporter 1 by the caffeine metabolite 1-methylxanthine” (Biochem Biophys Res Commun, 2004).

Target: T1, OAT1 (Solute carrier family 22 member 6, SLC22A6) (Homo sapiens, UniProt Q4U2R8)
T1 sequence (Q4U2R8 whole entry): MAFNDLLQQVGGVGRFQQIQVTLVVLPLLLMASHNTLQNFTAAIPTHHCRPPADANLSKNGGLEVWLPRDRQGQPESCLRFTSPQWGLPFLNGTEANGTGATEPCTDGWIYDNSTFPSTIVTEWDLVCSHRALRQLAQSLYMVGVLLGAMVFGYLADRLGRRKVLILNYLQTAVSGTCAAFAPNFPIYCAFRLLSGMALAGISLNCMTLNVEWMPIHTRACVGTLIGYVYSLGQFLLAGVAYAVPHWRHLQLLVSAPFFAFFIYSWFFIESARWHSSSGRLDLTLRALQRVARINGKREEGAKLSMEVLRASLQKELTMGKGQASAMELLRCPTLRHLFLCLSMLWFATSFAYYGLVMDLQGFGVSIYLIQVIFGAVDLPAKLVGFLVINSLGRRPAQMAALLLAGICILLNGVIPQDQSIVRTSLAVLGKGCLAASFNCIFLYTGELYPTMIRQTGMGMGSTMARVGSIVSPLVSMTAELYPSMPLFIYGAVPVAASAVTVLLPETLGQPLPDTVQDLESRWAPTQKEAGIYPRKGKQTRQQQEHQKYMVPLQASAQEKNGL
Assay: TP_TRANSPORTER: inhibition of 6-Carboxyfluorescein uptake by 1-methylxanthine at a concentration of 500uM in OAT1-expressing cell
Type: functional
Set-up: scale not given: the % may be the effect or the level left
Settings: OAT1-expressing cells, probe 6-Carboxyfluorescein; read-out: Activity

activity at 500 µM: 50%
Compound: Cn1c(=O)[nH]c2nc[nH]c2c1=O [1-METHYLXANTHINE]
